Experimental data reported in US10787643B2, “Methods, kits, and compositions for stem cell self-renewal” (Stowers Institute for Medical Research, priority 2007, dated 2020).

Tests used:
LSK Flk2− cells [1] = test: Transplantation of cultured sorted LSK Flk2− cells into lethally irradiated CD45.1+ recipient mice with competitor cells; assay type: in vivo, mouse; conditions: 1000 re-sorted LSK Flk2− cells from 28 day cultures; peripheral blood at 4 weeks post-transplant
Description: Cells were harvested from the wells prior to transplantation by pipetting up and down several times before transferring to a fresh tube. Residual was then collected by adding more media and repeating. Cells were washed in DMEM (Invitrogen, Cat. No. 31053) without phenol red and added to the appropriate number of whole bone marrow rescue cells from a congenic donor (for 200,000 rescue cells+1,000 re-sorted LSK Flk2^− cells (FIGS. 3F-3H) or the non-adherent product of 10 days culture of 100 LSK Flk2^− cultured cells (FIGS. 3I-3K) per mouse as indicated). […]
Repopulation was measured at 4 weeks post-transplant by collection of periperal blood, red blood cell lysis, and staining of CD45.1 (recipient) compared to CD45.2 (donor) engraftment using antibodies purchased from eBiosciences (FITC conjugated CD45.2 (Cat. No. 11-0454-85) and PE-Cy5 conjugated CD45.1 (Cat. No. 15-0453-82)). […] Multi-lineage reconstitution was determined by CD3, B220 (for lymphoid) and Gr1, Mac-1 (for myeloid), as described above.
Cells cultured for 28 days in (1) media, (2) media+BpV(pic), (3) media+CHIR99021 and (4) media+CHIR99021 (1 μM)+BpV(pic) (200 nM) were re-sorted for LSK Flk2^− cells. […] At 4 weeks post-transplant, peripheral blood was analyzed for donor (FIG. 3G) and multi-lineage (FIG. 3H) engraftment. […]

LSK Flk2− cells [2] = test: Competitive repopulation after 14 days ex vivo expansion of sorted HSCs or unsorted MNCs with or without CHIR99021; assay type: in vivo, mouse; conditions: long-term engraftment, competitor cells present
Description: For the experimental results shown in FIG. 13A, sorted LSK Flk2^− cells and unsorted MNCs containing a known quantity of LSK Flk2^− cells (CD45.2^+) were cultured for 14 days in ST media with and without CHIR99021. The cultured product of 100 sorted or 5 unsorted LSK Flk2^− cells per mouse were transplanted into lethally irradiated recipients (CD45.1^+). 5 freshly isolated, unsorted LSK Flk2^− cells per mouse were transplanted into a separate group. 1×10^5 freshly isolated CD45.1^+ competitor/radioprotective cells were also added per mouse. Peripheral blood analysis of recipients at 16 weeks post-transplant depicts % chimerism.
For the experiments set forth in this Example, a particular HSC expansion media was used. […]
Bone marrow cells were harvested from C57Bl/6 (CD45.2) mice and made into a single cell suspension by gently drawing through a 22 g needle several times. […] Cells were counted and a fraction of mononuclear cells (MNCs) were stained for lineage markers using CD3, CD4, CD8, B220, IgM, Mac-1, Gr1, and Ter119 antibodies along with Kit, Sca-1, and Flk2 for mouse HSC analysis or CD34 and CD38 for human HSC analysis. […] Frequency of putative HSCs (lineage negative, Sca-1^+, Kit^+, […] for mouse or CD34^+, CD38^− cells for human) was determined by analyzing >3×10^5 cells per sample independently in triplicate. […]

LSK Flk2− cells [3] = test: Transplantation of ex vivo expanded MNCs without competitor/radioprotective cells, with serial (secondary) transplantation; assay type: in vivo, mouse
Description: For this experiment, MNCs with a known quantity of putative HSCs were cultured with and without CHIR99021 for 14 days. After 14 days, the cellular product of these cultures was transplanted into lethally-irradiated recipients at a dosage corresponding to an original input into culture of MNCs containing 5 LSKF^− cells per mouse. Freshly isolated MNCs containing either 5 or 500 LSKF− cells were also transplanted into 2 additional lethally irradiated groups of mice. No rescue/competitor bone marrow cells were included.
At 16 weeks post-transplant, mice transplanted with MNCs containing 5 or 500 LSKF^− cells freshly isolated or cultured for 14 days described in FIGS. 6A-6D were sacrificed and bone marrow isolated. A secondary transplantation was performed on new groups of lethally irradiated mice by transplanting 1×10^6 bone marrow cells from the original transplant group per mouse. At 4 weeks post-transplant, peripheral blood was collected from each transplant recipient and donor-derived repopulation was determined.

LSK Flk2− cells [4] = test: Bone marrow MNC culture in HSC expansion media with CHIR99021 and PI3K inhibitor, FACS for LSK Flk2− expansion (FIG. 21); assay type: cell-based, mouse; conditions: for Expansion of LSK Flk2− cells: bone marrow MNCs cultured 10 days in ST media, 250 nM CHIR99021 or indicated concentrations of NVP-BEZ235
Description: Bone marrow MNCs were cultured for 10 days in an HSC expansion media with and without 250 nM CHIR99021, along with the indicated concentrations of PI3K inhibitor ([…]. et al. Identification and characterization of NVP-BEZ235, a new orally available dual phosphatidylinositol 3-kinase/mammalian target of rapamycin inhibitor with potent in vivo antitumor activity. (Molecular cancer therapeutics 7, 1851-1863 (2008)), and then subjected to FACS analysis to determine expansion of LSK Flk2^- cells. The inventors have developed a defined culture system utilizing only two cytokines, stem cell factor (SCF) and thrombopoietin (Tpo) (ST media), which have been shown previously to support HSC expansion in vitro (Zhang, […]. Murine hematopoietic stem cells change their surface phenotype during ex vivo expansion. Blood 105, 4314-4320 (2005)). […] Also, the ability of CHIR99021 to enhance expansion was negated by PI3K inhibition (FIG. 21).

LSK Flk2− cells [5] = test: Ex vivo culture of sorted LSK Flk2− cells with PTEN and/or GSK-3β inhibitors; assay type: cell-based, mouse; conditions: for Expansion of LSK cells compared to control (photographs): 17 and 23 days culture, 1 μM CHIR99021, 200 nM BpV(pic); for Expansion of LSK Flk2− cells compared to media without either inhibitor: 28 days culture, inhibitor added individually
Description: LSK or LSK Flk2^− cells were sorted into 96-well U-bottom tissue culture plates at 100 cells/well with 200 μl media/well. Cells were incubated at 37° C., 5% O2, 5% CO2 (balance N2) for the indicated number of days. One-half total volume of media (see Table 1, below for the base media) was carefully pipetted from the top and replaced with fresh media every other day.
One hundred LSK Flk2^− cells were sorted from wild-type (C57Bl/6) mice and cultured in (1) media, (2) media+1 μM CHIR99021 (a GSK-3β inhibitor, a gift from Dr. Sheng Ding), (3) media+200 nM Dipotassium Bis-peroxo(picolinato)oxovanadate (BpV(pic), a PTEN inhibitor, available from Calbiochem, Cat. No. 203705), (4) media+1 μM CHIR99021+200 nM BpV(pic), (5) media+200 nM Shikonin (also a PTEN inhibitor, available from Calbiochem, Cat. No. 565850), and (6) media+200 nM Shikonin+1 μM CHIR99021. […] Cells were cultured as described above. […] Cells were examined at 17 days of culture (FIG. 3B, original magnification 100×) and 23 days (FIG. 3C, original magnification 40×).
LSK Flk2^− cells at 28 days culture in the indicated media conditions were examined (FIG. 3D, original magnification 200×).
FACS analysis of 28 day LSK Flk2^− cells cultured in media+BpV(pic)+CHIR99021 (FIG. 3E) was performed. Cells were pre-gated on live, lineage negative cells.
Fold expansion of LSK Flk2^− cells after 28 days culture in (1) media, (2) media+BpV(pic), (3) media+CHIR99021, and (4) media+CHIR99021+BpV(pic) were analyzed.
Cells cultured for 9 days in (1) media, (2) media+BpV(pic) (200 nM), (3) media+CHIR99021 (100 nM), and (4) media+CHIR99021 (100 nM)+BpV(pic) (200 nM) were re-sorted for LSK Flk2^− cells, and fold expansion of LSK Flk2^− cells after 9 days culture in the indicated conditions was determined (FIG. 3I).
FACS analysis was performed on 9 day LSK Flk2^− cells cultured in media+BpV(pic) (200 nM)+CHIR99021 (100 nM) (FIG. 3J). Cells were pre-gated on live, lineage negative cells.

## Cc1c[nH]c(-c2cnc(NCCNc3ccc(C#N)cn3)nc2-c2ccc(Cl)cc2Cl)n1 [CHIR99021]
LSK Flk2− cells [1]
  Mice showing >1% engraftment: 4/8
LSK Flk2− cells [2]; 100 sorted putative HSCs cultured 14 days with CHIR99021 (250 nM)
  Average repopulation: 12.3%
LSK Flk2− cells [2]; unsorted MNC cultures, 14 days with CHIR99021 (250 nM)
  Average repopulation: 64.8%
LSK Flk2− cells [3]; 16 weeks post-secondary transplant, MNCs containing 5 LSK Flk2− cells expanded 14 days in ST media with CHIR99021, no competitor cells
  Donor reconstitution: 90.6±4.8%
LSK Flk2− cells [3]; 16 weeks post-secondary transplantation, expanded MNCs with 5 putative HSCs vs fresh MNCs with 500
  Long-term repopulation equivalent to a greater dose of fresh, unexpanded cells: 100 fold
LSK Flk2− cells [4]
  Expansion of LSK Flk2− cells: increased the expansion
LSK Flk2− cells [5]
  Expansion of LSK cells compared to control (photographs): greater expansion
  Expansion of LSK Flk2− cells compared to media without either inhibitor: significant expansion

## Cn1c(=O)n(-c2ccc(C(C)(C)C#N)cc2)c2c3cc(-c4cnc5ccccc5c4)ccc3ncc21 [NVP-BEZ235]
LSK Flk2− cells [4]; PI3K inhibitor added together with 250 nM CHIR99021, 10 days
  Ability of CHIR99021 to enhance expansion of LSK Flk2− cells: negated
LSK Flk2− cells [4]
  Expansion of LSK Flk2− cells: decreased the ability of LSK Flk2^− cells to expand in a dose-dependent manner

## Dipotassium Bis-peroxo(picolinato)oxovanadate [BpV(pic)]
LSK Flk2− cells [1]
  Mice showing >1% engraftment: 0/10
LSK Flk2− cells [5]
  Expansion of LSK cells compared to control (photographs): greater expansion
  Expansion of LSK Flk2− cells compared to media without either inhibitor: significant expansion
